Reference: patent publication US8129557B2, “Phosphonic acid diester derivative and method for producing thereof” (priority 2005, dated 2012)
Marks after values point to notes of the source that are not given here.

Columns and labels:
[1] = target: T1, E-coli GGT (Escherichia coli, UniProt P18956); assay: Second-order rate constant kon of E-coli GGT inactivation (continuous or discontinuous assay); format: biochemical, Escherichia coli K-12; conditions: for kon E-coli GGT: second-order rate constant for enzyme inactivation, pH 5.5, 25° C.
T1 construct: was used as a purified enzyme of E-coli GGT; made in house
T1 sequence (P18956 26-390 limits assumed): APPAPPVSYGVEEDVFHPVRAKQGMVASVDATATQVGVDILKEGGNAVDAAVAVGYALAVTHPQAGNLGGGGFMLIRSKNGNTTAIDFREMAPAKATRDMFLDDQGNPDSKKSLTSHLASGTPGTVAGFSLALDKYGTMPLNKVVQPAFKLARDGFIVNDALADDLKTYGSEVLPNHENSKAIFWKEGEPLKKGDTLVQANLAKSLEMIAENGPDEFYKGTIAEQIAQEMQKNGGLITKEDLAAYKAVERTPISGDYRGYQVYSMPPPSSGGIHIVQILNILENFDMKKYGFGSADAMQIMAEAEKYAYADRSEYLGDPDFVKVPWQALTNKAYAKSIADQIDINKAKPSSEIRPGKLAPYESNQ
T1 sequence (P18956 391-580 limits assumed): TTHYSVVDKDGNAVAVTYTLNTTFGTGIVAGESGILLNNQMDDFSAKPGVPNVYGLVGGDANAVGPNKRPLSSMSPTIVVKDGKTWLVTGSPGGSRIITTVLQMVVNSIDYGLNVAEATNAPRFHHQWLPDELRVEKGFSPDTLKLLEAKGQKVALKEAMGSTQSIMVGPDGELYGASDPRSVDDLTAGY
From the text: (§1) Purified enzyme of E-coli GGT and crude enzyme of human GGT were employed as GGT samples for an inhibition experiment. The enzyme whose physicochemical properties are described in the Document (Hideyuki Suzuki, Hidehiko Kumagai, Tatsurokukro Tochikura “gamma-Glutamyltranspeptidase from Escherichia coli K-12: Purification and Properties” Journal of Bacteriology, December 1986, Vol. 168, No. 3, p. 1325-1331) was used as a purified enzyme of E-coli GGT. Enzyme [HC-GTP (product number), 603AA (lot number)] manufactured by Asahi Kasei Co., Ltd. was used as a crude enzyme of human GGT. The crude enzyme of human GGT contained a large amount of bovine serum albumin (BSA) to stabilize the enzyme, and the GGT concentration was 1% or lower.
In the hydrolytic assay of E. coli GGT, 10 μL of a […] enzyme solution was added to a 100 mM succinic acid-sodium hydroxide buffer solution (pH 5.5) in a total volume of 1 mL containing 100 μL of 2 μM substrate aqueous solution. The product, 7-amino-4-methylcoumarin (AMC), released along with the enzyme reaction was traced continuously at 25° C. using a fluorospectrophotometer F-2000 manufactured by Hitachi Ltd. (excitation wavelength: 350 nm, emission wavelength: 440 nm). The AMC concentration was separately measured by forming a calibration curve showing the relation of the fluorescence intensity (F) and the concentration (C) using standard solutions and was calculated from the relational expression (1) of the fluorescence intensity alteration (ΔF) and concentration alteration (ΔC).
(§2) Next, a second-order rate constant for enzyme inactivation kon was measured by either a continuous assay or a discontinuous assay. Both of the continuous and discontinuous assay for measuring inhibitory activity to GGT were carried out under a pseudo-first-order reaction condition.
(§3) In the continuous assay, while the temperature was kept at 25° C., the 100 mM succinic acid-sodium hydroxide buffer solutions (pH 5.5) containing an inhibitor in various concentrations and the substrate were preincubated for equilibrium. Herein, 0.2 μM of the substrate was used for the case of E-coli GGT and 0.4 μM of the substrate was used for the case of human GGT. Thereafter, the enzyme solution of the E-coli GGT was added in a manner that the final concentration became 0.04 nM and also the human GGT crude enzyme solution was added in a manner that the final concentration became 5 μg/mL. Accordingly, the reaction was started and the release of AMC (increase of the fluorescence intensity) was continuously traced for 10 minutes.
(§4) The fluorescence intensity data obtained from the respective curves was applied to the following pseudo-first-order rate equation (2) and the observed pseudo-first-order rate constant for enzyme inactivation (kobs) was calculated by nonlinear regression analysis [Stein, R. L. et al. Biochemistry 26, 2682-2689 (1987)].
(§5) [Equation 2] [P]=[P]∞[1−exp(−kobst)] (2)
(§6) When the kobs was plotted against to the inhibitor concentration ([I]), a linear relation was obtained until the maximum extent of the experimentally possible inhibitor concentration. Therefore, the second-order rate constant for enzyme inactivation kon was calculated using the following equation (3) deduced from the kinetic mechanism.
(§7) [drawing 37] [Equation 3] kobs=kon[I]/(1+[S]/Km) (3)
(§8) Herein, S denotes 7-(γ-L-glutamylamino)-4-methylcoumarin. The substrate concentration [S] for E-coli GGT is 0.2 μM and the Km value is 0.2 μM. […] The kinetic data was obtained by nonlinear regression analysis using Kaleida graph, a program produced by Synergy Software.
Further, in the discontinuous assay, an inhibitor in various concentrations was dissolved in 100 mM succinic acid-sodium hydroxide buffer solution (pH 5.5) and the enzyme solution was added to the resulting buffer solutions. […]

[2] = target: T2, human GGT (Homo sapiens, UniProt P19440); assay: Second-order rate constant kon of human GGT inactivation (continuous or discontinuous assay); format: biochemical; conditions: for kon Human GGT: second-order rate constant for enzyme inactivation, pH 5.5, 25° C.; for plot of log kon (human GGT) against pKa of aryl group, FIG. 4: position relative to the straight line
T2 construct: purchased Asahi Kasei Co., Ltd. HC-GTP (lot 603AA)
T2 sequence (P19440 1-380 limits assumed): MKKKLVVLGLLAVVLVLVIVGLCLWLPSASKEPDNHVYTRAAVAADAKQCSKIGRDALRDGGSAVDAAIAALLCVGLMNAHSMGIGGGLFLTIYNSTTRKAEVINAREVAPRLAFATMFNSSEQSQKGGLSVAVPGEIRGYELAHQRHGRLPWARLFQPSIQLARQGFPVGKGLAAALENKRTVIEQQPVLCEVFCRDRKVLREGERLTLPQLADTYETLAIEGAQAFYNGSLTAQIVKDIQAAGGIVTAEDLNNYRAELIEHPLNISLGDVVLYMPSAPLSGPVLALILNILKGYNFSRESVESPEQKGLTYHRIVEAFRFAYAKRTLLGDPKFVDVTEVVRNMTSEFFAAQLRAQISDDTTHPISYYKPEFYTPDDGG
T2 sequence (P19440 381-569 limits assumed): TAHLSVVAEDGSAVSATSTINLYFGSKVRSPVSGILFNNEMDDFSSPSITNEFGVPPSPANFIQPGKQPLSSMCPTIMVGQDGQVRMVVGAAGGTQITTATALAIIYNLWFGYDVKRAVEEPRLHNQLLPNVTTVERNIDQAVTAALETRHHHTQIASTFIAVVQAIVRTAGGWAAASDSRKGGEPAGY
From the text: as §1
In the hydrolytic assay of human GGT, the measurement was carried out in the same manner as that in the hydrolytic assay of E-coli GGT, except that the substrate concentration was changed to […] and therefore, the explanation of the common portions was omitted.
as §2, §3, §4, §5, §6, §7, §8
Further, in the discontinuous assay, an inhibitor in various concentrations was dissolved in 100 mM succinic acid-sodium hydroxide buffer solution (pH 5.5) and the enzyme solution was added to the resulting buffer solutions. Herein, in the case of E-coli GGT, the enzyme solution was added in a manner that the final concentration became 0.4 nM and also the human GGT crude enzyme solution was added in a manner that the final concentration became 0.5 mg/mL. Accordingly, the reaction of the inhibitor and each GGT was conducted at 25° C. An aliquot (10 μL) of each of the reaction solutions were sampled at every specified time to measure the remaining enzyme activity by the above-mentioned enzyme activation method. The remaining enzyme activity at every time was analyzed by nonlinear regression using the pseudo-first-order rate equation (4) of enzyme inactivation to calculate the value of kobs.
[Equation 4] αt/α0=exp(−kobst) (4) […]

[3] = Chemical stability: hydrolysis ratio after storage in water at room temperature; format: physicochemical
Protocol: Herein, the hydrolysis ratios of the reactive compounds of Examples 1 to 11 were measured after the respective compounds were stored in water at room temperature. In this connection, the compounds other than the compound of Example 10 were stored in water for 12 hours and the compound of Example 10 was stored in water for 112 hours.

[4] = stored in water at room temperature for 12 hours

SMILES	kon E-coli GGT [1]	kon Human GGT [2]	Hydrolysis ratio (%) [3, 4]	mode of inhibition of E-coli GGT (activity plot, FIG. 1) ([1]; AMC fluorescence against time)	mode of inhibition of human GGT (activity plot, FIG. 2) ([2]; AMC fluorescence against time)	plot of log kon (human GGT) against pKa of aryl group, FIG. 4 [2]	Hydrolysis ratio (%) ([3]; stored in water at room temperature for 112 hours)
COP(=O)(CCC(N)C(=O)O)Oc1ccc(C)cc1 (stereo not shown) [Example 1, 2-amino-4-[methyl(4-methylphenyl)phosphono]butanoic Acid]	23 M^−1S^−1	0.24 M^−1S^−1	0%	–	–	–	–
COP(=O)(CCC(N)C(=O)O)Oc1ccc(C#N)cc1 (stereo not shown) [Example 6, 2-amino-4-[(4-cyanophenyl)(methyl)phosphono]butanoic Acid]	12000 M^−1S^−1	45.9 M^−1S^−1	12.3%	–	–	–	–
COP(=O)(CCC(N)C(=O)O)Oc1ccc2c(C)cc(=O)oc2c1 (stereo not shown) [Example 8, 2-amino-4-[methyl(4-methylumbelliferyl)phosphono]butanoic Acid]	15700 M^−1S^−1	2400 M^−1S^−1	6.0%	irreversibly inactivate	irreversibly inactivate	deviate upward	–
COc1ccc(OP(=O)(CCC(N)C(=O)O)OC)cc1 (stereo not shown) [Example 2, 2-amino-4-[(4-methoxyphenyl)(methyl)phosphono]butanoic Acid]	19.5 M^−1S^−1	0.16 M^−1S^−1	0%	–	–	–	–
CCC(OP(=O)(CCC(N)C(=O)O)Oc1ccccc1)C(=O)NCC(=O)O (stereo not shown) [Example 10, 2-amino-4-[1-[N-(carboxymethyl)carbamoyl]propyl(phenyl)phosphono]butanoic acid]	80.9 M^−1S^−1	74.5 M^−1S^−1	–	–	–	deviate upward	37.5* %
COP(=O)(CCC(N)C(=O)O)Oc1ccc(CC(=O)O)cc1 (stereo not shown) [Example 12, 2-amino-4-{[4-(carboxymethyl)phenyl](methyl)phosphono}butanoic Acid]	200 M^−1S^−1	0.33 M^−1S^−1	–	–	–	–	–
CCCCOP(=O)(CCC(N)C(=O)O)Oc1ccccc1 (stereo not shown) [Example 9, 2-amino-4-[butyl(phenyl)phosphono]butanoic Acid]	9.0 M^−1S^−1	0.023 M^−1S^−1	0%	–	–	–	–
COP(=O)(CCC(N)C(=O)O)Oc1ccccc1 (stereo not shown) [Example 3, 2-amino-4-[methyl(phenyl)phosphono]butanoic Acid]	115 M^−1S^−1	0.40 M^−1S^−1	0%	–	–	–	–
COP(=O)(CCC(N)C(=O)O)Oc1ccc(C(F)(F)F)cc1 (stereo not shown) [Example 5, 2-amino-4-[methyl(4-trifluoromethylphenyl)phosphono]butanoic acid]	2800 M^−1S^−1	11.5 M^−1S^−1	0%	–	–	–	–
COP(=O)(CCC(N)C(=O)O)Oc1cccc([N+](=O)[O-])c1 (stereo not shown) [Example 14, 2-amino-4-[methyl(3-nitrophenyl)phosphono]butanoic Acid]	5100 M^−1S^−1	49 M^−1S^−1	–	–	–	–	–
NC(CCP(=O)(Oc1ccccc1)Oc1ccccc1)C(=O)O (stereo not shown) [Example 17, 2-amino-4-(diphenylphosphono)butanoic Acid]	28 M^−1S^−1	0.41 M^−1S^−1	–	–	–	–	–
COP(=O)(CCC(N)C(=O)O)Oc1ccc(Cl)cc1 (stereo not shown) [Example 4, 2-amino-4-[(4-chlorophenyl)(methyl)phosphono]butanoic Acid]	607 M^−1S^−1	5.0 M^−1S^−1	0%	–	–	–	–
COP(=O)(CCC(N)C(=O)O)Oc1cccc(CCC(=O)O)c1 (stereo not shown) [Example 16, 2-amino-4-{[3-(2-carboxyethyl)phenyl](methyl)phosphono}butanoic Acid]	71 M^−1S^−1	7.67 M^−1S^−1	–	–	–	deviate upward	–
COP(=O)(CCC(N)C(=O)O)Oc1cccc(C(=O)O)c1 (stereo not shown) [Example 15, 2-amino-4-[3-carboxyphenyl(methyl)phosphono]butanoic Acid]	450 M^−1S^−1	1.63 M^−1S^−1	–	–	–	–	–
N[C@H](C(=O)O)[C@@H]1CC(Cl)=NO1 [Comparative Example 1, (aS, 5S)-acivicin, reference compound]	4210 ± 10 M^−1S^−1	0.40 ± 0.02 M^−1S^−1	–	–	–	–	–
COP(=O)(CCC(N)C(=O)O)Oc1ccc(C(=O)O)cc1 (stereo not shown) [Example 13, 2-amino-4-[4-carboxyphenyl(methyl)phosphono]butanoic Acid]	3200 M^−1S^−1	5.2 M^−1S^−1	–	–	–	–	–
